Laboratory results published in patent publication US7199121B2, “Protein tyrosine phosphatase inhibitor” (Institute of Molecular and Cell Biology, priority 2000, dated 2007).

What was measured:
Enterococcus faecalis = assay: Antimicrobial activity, Enterococcus faecalis; format: cell-based; settings: 50 μM or 100 μM
Mycobacterium smegmatis = assay: Antimicrobial activity, Mycobacterium smegmatis; format: cell-based; settings: 50 μM or 100 μM
LAR-D1 = molecular target: T1, LAR-D1 (Homo sapiens, UniProt P10586); assay: Phosphatase assay (pNPP dephosphorylation), LAR-D1
T1 sequence (P10586 1352-1607 limits assumed): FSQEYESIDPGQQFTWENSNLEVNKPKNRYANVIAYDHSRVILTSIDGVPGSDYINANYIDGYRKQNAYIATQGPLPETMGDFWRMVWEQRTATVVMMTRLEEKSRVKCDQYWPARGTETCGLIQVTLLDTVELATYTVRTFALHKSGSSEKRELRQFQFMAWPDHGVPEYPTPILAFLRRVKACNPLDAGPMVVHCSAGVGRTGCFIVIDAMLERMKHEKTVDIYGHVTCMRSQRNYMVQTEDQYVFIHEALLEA
Procedure: (§1) Dephosphorylation of pNPP was measured in 450 μL reactions containing 50 mM sodium acetate (pH 5.5, or pH 7 for CIP), 0.5 mg/mL BSA, 0.5 μM dithiothreitol, and 2 mM pNPP. Reactions with IPP also contained 2 mM Mn^2+. […] All reactions were carried out at 30° C. and terminated during the linear portion of the reaction.
(§2) [nM] refers to the concentration of phosphatase assayed. The numbers indicate percentage activities relative to respective control reactions without addition of 3, 4, or Na3VO4. The numbers represent the average of the activities measured with three separate enzyme preparations, each of which was assayed in duplicate±S.D.

Proteus vulgaris = assay: Antimicrobial activity, Proteus vulgaris; format: cell-based; settings: 50 μM or 100 μM
TCPTP = molecular target: T2, TCPTP (Homo sapiens, UniProt P17706); assay: Phosphatase assay (pNPP dephosphorylation), TCPTP
T2 sequence (P17706 1-317 limits assumed): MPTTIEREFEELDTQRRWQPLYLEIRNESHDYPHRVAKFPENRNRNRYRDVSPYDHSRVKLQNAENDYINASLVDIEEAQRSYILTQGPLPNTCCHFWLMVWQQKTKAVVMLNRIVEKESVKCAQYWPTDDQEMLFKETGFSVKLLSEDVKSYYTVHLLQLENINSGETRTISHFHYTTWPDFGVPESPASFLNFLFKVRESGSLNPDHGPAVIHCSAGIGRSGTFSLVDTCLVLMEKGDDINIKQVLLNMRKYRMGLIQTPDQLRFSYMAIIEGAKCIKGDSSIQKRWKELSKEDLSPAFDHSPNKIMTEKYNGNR
Procedure: as §1, §2

λPP = molecular target: T3, λPP (Escherichia phage lambda, UniProt P03772); assay: Phosphatase assay (pNPP dephosphorylation), λPP
T3 sequence (P03772 1-221): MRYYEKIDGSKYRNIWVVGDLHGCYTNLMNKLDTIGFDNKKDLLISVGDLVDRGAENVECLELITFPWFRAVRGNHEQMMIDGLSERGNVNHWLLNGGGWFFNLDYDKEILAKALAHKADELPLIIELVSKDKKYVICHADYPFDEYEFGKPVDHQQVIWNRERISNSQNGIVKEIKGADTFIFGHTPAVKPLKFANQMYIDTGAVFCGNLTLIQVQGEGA
Procedure: (§3) All other PTPs described in the text were purchased from New England Biolabs. Dephosphorylation of pNPP was measured in 450 μL reactions containing 50 mM sodium acetate (pH 5.5, or pH 7 for CIP), 0.5 mg/mL BSA, 0.5 μM dithiothreitol, and 2 mM pNPP. Reactions with IPP also contained 2 mM Mn^2+. […] All reactions were carried out at 30° C. and terminated during the linear portion of the reaction.
as §2

CIP = assay: Phosphatase assay (pNPP dephosphorylation, pH 7), CIP
Procedure: as §3, §2

CD45 = molecular target: T4, CD45 (Homo sapiens, UniProt P08575); assay: Phosphatase assay (pNPP dephosphorylation), CD45
T4 sequence (P08575 599-1306 limits assumed): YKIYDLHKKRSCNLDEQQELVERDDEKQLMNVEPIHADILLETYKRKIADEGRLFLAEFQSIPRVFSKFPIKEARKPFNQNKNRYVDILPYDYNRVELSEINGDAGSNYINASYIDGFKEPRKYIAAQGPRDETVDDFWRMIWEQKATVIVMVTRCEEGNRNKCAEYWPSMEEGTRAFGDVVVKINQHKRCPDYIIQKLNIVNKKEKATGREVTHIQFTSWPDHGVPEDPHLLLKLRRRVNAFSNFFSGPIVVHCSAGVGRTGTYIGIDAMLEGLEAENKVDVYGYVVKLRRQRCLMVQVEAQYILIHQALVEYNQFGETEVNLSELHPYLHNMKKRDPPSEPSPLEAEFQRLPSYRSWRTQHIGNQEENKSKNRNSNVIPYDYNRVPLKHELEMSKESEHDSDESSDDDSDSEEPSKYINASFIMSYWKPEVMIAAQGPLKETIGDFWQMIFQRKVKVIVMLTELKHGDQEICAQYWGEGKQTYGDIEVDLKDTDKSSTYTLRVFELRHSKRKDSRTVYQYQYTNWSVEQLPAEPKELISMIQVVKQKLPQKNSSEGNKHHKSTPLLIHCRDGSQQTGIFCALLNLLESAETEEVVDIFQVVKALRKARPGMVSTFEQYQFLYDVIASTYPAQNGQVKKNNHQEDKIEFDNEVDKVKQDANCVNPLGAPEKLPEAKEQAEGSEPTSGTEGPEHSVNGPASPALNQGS
Procedure: as §3, §2

PTP = assay: Bioassay for PTP inhibitory activity; format: biochemical
Procedure: HTS for inhibitory activity towards PTPα was performed in 96 well plates (Nunclon). Dephosphorylation of the substrate (pNPP) was measured in 180 μL reactions/well in assay buffer containing 50 mM sodium acetate (pH 5.5), 0.5 mg/mL BSA and 0.5 mM dithiothreitol. The purified enzyme PTPα (0.3 μg/well) and extracts (5 μL in 50% methanol) were preincubated for 5–10 min at room temperature in a volume of 170 μl. Reactions were initiated by adding 10 μL of substrate in assay buffer to a final concentration of 2 mM. For each plate, 6 reference control wells containing PTPα were preincubated with 5 μL 50% methanol at the same time as the test samples. As a positive control for PTPα inhibition, 1 μM Na3VO4, a potent inhibitor of PTPs, was added to some wells. Blank wells contained 5 μL 50% methanol, 2 mM pNPP in assay buffer and no enzyme. For each set of experiments (from 2–5 plates), reference controls in a separate plate were read at different time points to check the linearity of the reaction. Reactions were stopped with 25 μL KH2PO4 after 45–60 mins incubation at room temperature. The plates were read immediately in a multilabel counter (Wallac 1420 Victor). The OD405 of the reference wells ranged between 0.7–1.2, which represents <10% conversion of the substrate and falls within the linear part of the reaction. Percentage inhibition was determined using the formula: % Inhibition=[{(OD ref−OD blank)−(OD test−OD blank)}/(OD ref−OD blank)]×100 Phosphatase Assay: […]

Staphylococcus aureus = assay: Antimicrobial activity, Staphylococcus aureus; format: cell-based; settings: 50 μM or 100 μM
Candida albicans = assay: Antimicrobial activity, Candida albicans; format: cell-based; settings: 50 μM or 100 μM
Pseudomonas aeruginosa = assay: Antimicrobial activity, Pseudomonas aeruginosa; format: cell-based; settings: 50 μM or 100 μM
Escherichia coli = assay: Antimicrobial activity, Escherichia coli; format: cell-based; settings: 50 μM or 100 μM
εD1D2 = εD1D2 (Homo sapiens, UniProt P23469); assay: Phosphatase assay (pNPP dephosphorylation), PTPε D1D2
Procedure: as §3, §2

αD1D2 = αD1D2 (Homo sapiens, UniProt P18433); assay: Phosphatase assay (pNPP dephosphorylation), PTPα D1D2
Procedure: as §3, §2

Curvualaria sp. = assay: Antimicrobial activity, Curvualaria sp.; format: cell-based; settings: 50 μM or 100 μM
[1] = 1 μM compound, phosphatase 5.0 nM, pNPP, average of three enzyme preparations ± S.D.
[2] = 1 μM compound, phosphatase 1.0 nM, pNPP, average of three enzyme preparations ± S.D.

Sequence of αD1D2 (P18433 175-802): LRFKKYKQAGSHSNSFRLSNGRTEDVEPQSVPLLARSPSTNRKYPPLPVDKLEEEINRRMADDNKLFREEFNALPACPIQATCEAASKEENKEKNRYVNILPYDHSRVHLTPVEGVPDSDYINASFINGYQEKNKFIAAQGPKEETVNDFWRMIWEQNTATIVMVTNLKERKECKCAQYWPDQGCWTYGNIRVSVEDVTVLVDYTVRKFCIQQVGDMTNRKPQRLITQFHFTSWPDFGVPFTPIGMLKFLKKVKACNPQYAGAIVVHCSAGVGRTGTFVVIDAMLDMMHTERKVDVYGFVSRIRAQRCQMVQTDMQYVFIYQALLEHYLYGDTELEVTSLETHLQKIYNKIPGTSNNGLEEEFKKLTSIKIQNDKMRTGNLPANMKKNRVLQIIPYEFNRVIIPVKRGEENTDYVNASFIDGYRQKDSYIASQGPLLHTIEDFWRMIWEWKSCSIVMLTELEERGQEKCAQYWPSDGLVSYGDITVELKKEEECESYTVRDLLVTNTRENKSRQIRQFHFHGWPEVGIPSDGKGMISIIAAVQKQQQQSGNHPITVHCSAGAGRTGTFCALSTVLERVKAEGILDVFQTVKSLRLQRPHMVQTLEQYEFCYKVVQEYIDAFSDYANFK
Sequence of εD1D2 (P23469 70-700 limits assumed): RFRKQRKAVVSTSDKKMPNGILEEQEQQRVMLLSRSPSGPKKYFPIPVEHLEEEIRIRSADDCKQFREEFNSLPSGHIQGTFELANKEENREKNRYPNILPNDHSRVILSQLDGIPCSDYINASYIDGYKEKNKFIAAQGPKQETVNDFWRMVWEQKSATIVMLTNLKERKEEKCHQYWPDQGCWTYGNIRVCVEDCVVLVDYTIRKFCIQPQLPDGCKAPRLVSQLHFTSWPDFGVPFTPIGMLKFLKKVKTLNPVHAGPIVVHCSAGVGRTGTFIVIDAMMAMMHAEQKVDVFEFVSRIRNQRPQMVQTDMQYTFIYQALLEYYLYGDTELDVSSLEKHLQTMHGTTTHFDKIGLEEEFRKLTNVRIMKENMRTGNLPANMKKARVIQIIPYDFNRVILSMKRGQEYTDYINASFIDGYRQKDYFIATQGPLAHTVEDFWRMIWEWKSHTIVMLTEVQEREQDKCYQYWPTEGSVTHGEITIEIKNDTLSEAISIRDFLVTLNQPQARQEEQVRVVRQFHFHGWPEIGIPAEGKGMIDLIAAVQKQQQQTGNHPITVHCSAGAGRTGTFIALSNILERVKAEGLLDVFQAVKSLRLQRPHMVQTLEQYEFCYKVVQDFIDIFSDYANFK

Cn1nc2c(nc1=O)c(=O)n(C)c(=O)n2C [Compound 3, 2,8-dihydro-2,6,8-trimethyl-pyrimido[5,4-e]-1,2,4-triazine-3,5,7(6H)-trione]
antimicrobial activity against Enterococcus faecalis (Enterococcus faecalis): no antimicrobial activity
antimicrobial activity against Mycobacterium smegmatis (Mycobacterium smegmatis): no antimicrobial activity
percentage activity of LAR-D1 relative to control (LAR-D1; [1]): 17 ± 2.0%
inhibition at 1 µM (LAR-D1; read-out: inhibition of LAR-D1): 83 to 85%
antimicrobial activity against Proteus vulgaris (Proteus vulgaris): no antimicrobial activity
percentage activity of TCPTP relative to control (TCPTP; [2]): 34 ± 1.0%
inhibition at 1 µM (TCPTP; read-out: inhibition of TC-PTP): ~65%
percentage activity of λPP relative to control (λPP; [1]): 48 ± 2.0%
inhibition at 1 µM (λPP; read-out: inhibition of λPP activity): ~50%
percentage activity of CIP relative to control (CIP; 1 μM compound, phosphatase 0.5 nM, pNPP, pH 7, average of three enzyme preparations ± S.D.): 100 ± 1.0%
effect on pNPP phosphatase activity of CIP (CIP; neutral pH): neither compound had any detectable effect
percentage activity of CD45 relative to control (CD45; [2]): 15 ± 2.5%
inhibition at 1 µM (CD45; read-out: inhibition of CD45): 83 to 85%
effect on in vitro activity of the PTPs tested (PTP; 1 μM, receptor and non-receptor PTPs): inhibited all the PTPs tested
PTP inhibitory activity in bioassay (PTP; isolated material, 1 and 2 contaminated with about 6-10% of 3): potent PTP inhibitor
antimicrobial activity against Staphylococcus aureus (Staphylococcus aureus): no antimicrobial activity
antimicrobial activity against Candida albicans (Candida albicans): no antimicrobial activity
antimicrobial activity against Pseudomonas aeruginosa (Pseudomonas aeruginosa): no antimicrobial activity
antimicrobial activity against Escherichia coli (Escherichia coli): no antimicrobial activity
percentage activity of εD1D2 relative to control (εD1D2; [2]): 17 ± 4.0%
inhibition at 1 µM (εD1D2; read-out: inhibition of εD1D2): 83 to 85%
percentage activity of αD1D2 relative to control (αD1D2; [1]): 17 ± 1.1%
PTP inhibition of αD1D2 at neutral pH (αD1D2; neutral pH, results not shown): continues to behave as a PTP inhibitor
inhibition at 1 µM (αD1D2; read-out: inhibition of αD1D2): 83 to 85%
antimicrobial activity against Curvualaria sp. (Curvualaria sp.): no antimicrobial activity
